Test results taken from PMC9684503 (Communications Biology, 2022).
Counter-ions that a name gives are not always drawn. Like-named read-outs stand apart in the source and are kept apart here.

Target: T1, rat VMAT2-His (Rattus norvegicus, UniProt Q01827)
T1 construct: The ORF of rat VMAT2 was subcloned into a pFastBac vector; His; made in house; host or cells: Sf9 insect cells (baculovirus)
Test: Differential scanning fluorimetry (DSF) with CPM dye: change of melting temperature of purified VMAT2
Format: binding
Conditions: for ΔTm at 10 µM / ΔTm at 30 µM / ΔTm at 90 µM / ΔTm at 270 µM / ΔTm at 12 µM / ΔTm at 37 µM / ΔTm at 11 µM / ΔTm at 33 µM: read-out: ΔTm; for ΔTm at 12 µM: compound 0,12 µM; for ΔTm at 37 µM: compound 0,37 µM; for ΔTm at 11 µM: compound 1,11 µM; for ΔTm at 33 µM: compound 3,33 µM
Experimental: To screen purified VMAT2 by DSF we expressed the rat VMAT2 protein, as VMAT2-His, in SF9 insect cells using the baculovirus expression system. The transporter was solubilized and purified in n-Dodecyl-β-D-maltoside (DDM)/cholesterol hemisuccinate (CHS) micelles by immobilized metal affinity chromatography (IMAC) and size exclusion chromatography (SEC). […] Screening was performed using DSF and the thiol-reactive dye 7-diethylamino-3-(4-maleimidophenyl)-4-methylcoumarin (CPM), an approach that monitors changes to the protein melting temperature (Tm) upon compound binding. Using CPM or other dyes, DSF-based assays have successfully been used in molecular-based screenings[34],[35]. […] DSF screening was performed in 384 well plates using the thiol-sensing dye 7-diethylamino-3-(4-maleimidophenyl)-4-methylcoumarin (CPM) (Merck). […] Protein melting curves were determined using a LightCycler 480 ii RT-PCR system (Roche), with a temperature ramp increasing from 25 to 95 °C at a rate of 2 °C/min. Data analysis was performed using an in-house software that automatically determines the protein midpoint melting temperature (Tm) based on the second derivative of the melting curves or using the HTSDSF explorer as described in ref. [58]. […] 6 μl of this mix was dispensed to each well of 384 well plates using a Multidrop™ Combi Reagent Dispenser (Thermo Scientific). […] All initial hits were then subjected to an initial validation in triplicates with a compound concentration of 200 μM and a ΔTm > 5× the standard deviation (SD) cut off. […] Processing of the data from the primary screening and the concentration-dependent validation was performed as reported.

[1] = Table S2 dose response, compound 10 µM
[2] = Table S2 dose response, compound 30 µM
[3] = Table S2 dose response, compound 90 µM
[4] = Table S1, primary hits, average change in melting temperature vs controls, triplicates
[5] = Table S2 dose response, compound 270 µM

T1 sequence (Q01827 whole entry): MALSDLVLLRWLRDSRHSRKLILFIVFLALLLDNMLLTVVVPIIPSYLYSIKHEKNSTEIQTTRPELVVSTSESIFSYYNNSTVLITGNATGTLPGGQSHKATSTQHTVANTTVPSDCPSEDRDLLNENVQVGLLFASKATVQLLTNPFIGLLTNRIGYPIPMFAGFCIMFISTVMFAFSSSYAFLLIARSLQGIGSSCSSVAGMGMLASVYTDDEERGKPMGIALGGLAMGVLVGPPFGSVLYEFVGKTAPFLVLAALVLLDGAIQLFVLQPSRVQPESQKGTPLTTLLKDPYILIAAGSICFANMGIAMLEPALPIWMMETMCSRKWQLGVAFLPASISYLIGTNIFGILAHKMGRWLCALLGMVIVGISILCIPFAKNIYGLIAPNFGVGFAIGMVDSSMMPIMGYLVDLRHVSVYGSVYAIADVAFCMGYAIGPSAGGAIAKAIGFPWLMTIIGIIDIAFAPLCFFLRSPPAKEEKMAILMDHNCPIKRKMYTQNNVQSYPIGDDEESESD

Structure (SMILES) | ΔTm [4] | ΔTm at 10 µM [1] | ΔTm at 30 µM [2] | ΔTm at 90 µM [3] | ΔTm at 270 µM [5] | ΔTm at 12 µM (Table S2 dose response) | ΔTm at 37 µM (Table S2 dose response) | ΔTm at 11 µM (Table S2 dose response) | ΔTm at 33 µM (Table S2 dose response) | other results
Cl.Cl.OCCN1CCN(CC/C=C2/c3ccccc3Sc3ccc(Cl)cc32)CC1 [Zuclopenthixol dihydrochloride] | – | – | – | – | – | – | – | – | – | ΔTm (11 µM): -0,58 oC; ΔTm (12 µM): -0,36 oC; ΔTm (33 µM): 0,03 oC; ΔTm (37 µM): -0,44 oC; ΔTm (270 µM): -1,51 oC; ΔTm [1]: -0,07 oC; ΔTm [2]: -1,80 oC; ΔTm [3]: -0,79 oC
CC(C)COCC(CN(Cc1ccccc1)c1ccccc1)N1CCCC1 (stereo not drawn) [Bepridil hydrochloride] | – | -1.08 °C | -1.2 °C | -1.63 °C | -3.8 °C | -0.78 °C | -0.68 °C | -0.75 °C | -0.93 °C | –
CCCCC(CC)CN1CN(CC(CC)CCCC)CC(C)(N)C1 (stereo not drawn) [Hexetidine] | – | -0.28 °C | -0.3 °C | -0.46 °C | -1.54 °C | -0.09 °C | -0.06 °C | -0.02 °C | -0.07 °C | –
C=CCc1ccccc1OCC(O)CNC(C)C (stereo not drawn) [Alprenolol hydrochloride] | 2,30 ± 0,05 oC | 0.14 °C | 0.73 °C | 0.4 °C | 1.21 °C | -0.11 °C | -0.04 °C | 0.04 °C | 0.02 °C | –
OC(c1cc(C(F)(F)F)nc2c(C(F)(F)F)cccc12)C1CCCCN1 (stereo not drawn) [Mefloquine hydrochloride] | -11,15 ± 0,23 oC | 0.1 °C | 0.21 °C | 0.09 °C | 0.08 °C | -0.02 °C | 0.04 °C | 0 °C | -0.11 °C | –
CN1CCN(CCCN2c3ccccc3Sc3ccc(C(F)(F)F)cc32)CC1 [Trifluoperazine dihydrochloride] | – | – | – | – | – | – | – | – | – | ΔTm: -6,15 ± 0, 08 oC; ΔTm at 10 µM: -0.69 °C; ΔTm at 30 µM: -0.28 °C; ΔTm at 90 µM: -0.23 °C; ΔTm at 270 µM: -1.05 °C
CCSc1ccc2c(c1)N(CCCN1CCN(C)CC1)c1ccccc1S2.O=C(O)CC(O)C(=O)O.O=C(O)CC(O)C(=O)O [Thiethylperazine dimalate] | – | – | – | – | – | – | – | – | – | ΔTm (11 µM): -0,77 oC; ΔTm (12 µM): -0,61 oC; ΔTm (33 µM): -0,78 oC; ΔTm (37 µM): -0,58 oC; ΔTm (270 µM): -3,69 oC; ΔTm [1]: -1,01 oC; ΔTm [2]: -1,34 oC; ΔTm [3]: -2,15 oC

Further lines, with some results ahead:

ΔTm [4] | ΔTm at 10 µM [1] | ΔTm at 30 µM [2] | ΔTm at 90 µM [3] | ΔTm at 270 µM [5] | ΔTm at 12 µM (Table S2 dose response) | ΔTm at 37 µM (Table S2 dose response) | ΔTm at 11 µM (Table S2 dose response) | ΔTm at 33 µM (Table S2 dose response) | Structure (SMILES) | other results
1,51 ± 0,28 oC | 0.39 °C | 0.66 °C | 0.53 °C | 1.43 °C | – | – | – | – | C[C@H](CCC(=O)O)[C@H]1CC[C@H]2[C@@H]3C(=O)C[C@@H]4CC(=O)CC[C@]4(C)[C@H]3CC(=O)[C@]12C [Dehydrocholic acid] | –
0,81 ± 0,07 oC | 0.27 °C | 0.42 °C | 0.1 °C | 0.24 °C | – | – | – | – | CC(CCc1ccccc1)NCC(O)c1ccc(O)c(C(N)=O)c1 (stereo not drawn) [Labetalol hydrochloride] | –
1,98 ± 0,15 oC | 0.64 °C | 0.35 °C | 0.57 °C | 2.24 °C | -0.11 °C | -0.01 °C | 0.17 °C | 0.19 °C | C[C@H](CCC(=O)O)[C@H]1CC[C@H]2[C@@H]3[C@H](O)C[C@@H]4C[C@H](O)CC[C@]4(C)[C@H]3CC[C@]12C [Chenodiol] | –
-13,22 ± 0,13 oC | 0.21 °C | 0.24 °C | -0.01 °C | -0.6 °C | – | – | – | – | CC(C)(C)c1ccc(C(O)CCCN2CCC(C(O)(c3ccccc3)c3ccccc3)CC2)cc1 (stereo not drawn) [Terfenadine] | –
– | -0.91 °C | -0.7 °C | -0.55 °C | -1.64 °C | -0.17 °C | -0.28 °C | -0.49 °C | -0.65 °C | CC(C)(C)NC(=O)[C@@H]1C[C@@H]2CCCC[C@@H]2CN1C[C@@H](O)[C@H](Cc1ccccc1)NC(=O)[C@H](CC(N)=O)NC(=O)c1ccc2ccccc2n1 [Saquinavir mesylate] | –
